In ChEMBL document CHEMBL1158056, “Antidepressant principles of the roots of Polygala tenuifolia” (J Nat Prod, 2006):

Target: Sodium-dependent noradrenaline transporter (Homo sapiens, UniProt P23975)
Experiment: biochemical
Description: Displacement of [125I]RTI-55 from human NET expressed in MDCK cell membrane

Chain of Sodium-dependent noradrenaline transporter (P23975 whole entry): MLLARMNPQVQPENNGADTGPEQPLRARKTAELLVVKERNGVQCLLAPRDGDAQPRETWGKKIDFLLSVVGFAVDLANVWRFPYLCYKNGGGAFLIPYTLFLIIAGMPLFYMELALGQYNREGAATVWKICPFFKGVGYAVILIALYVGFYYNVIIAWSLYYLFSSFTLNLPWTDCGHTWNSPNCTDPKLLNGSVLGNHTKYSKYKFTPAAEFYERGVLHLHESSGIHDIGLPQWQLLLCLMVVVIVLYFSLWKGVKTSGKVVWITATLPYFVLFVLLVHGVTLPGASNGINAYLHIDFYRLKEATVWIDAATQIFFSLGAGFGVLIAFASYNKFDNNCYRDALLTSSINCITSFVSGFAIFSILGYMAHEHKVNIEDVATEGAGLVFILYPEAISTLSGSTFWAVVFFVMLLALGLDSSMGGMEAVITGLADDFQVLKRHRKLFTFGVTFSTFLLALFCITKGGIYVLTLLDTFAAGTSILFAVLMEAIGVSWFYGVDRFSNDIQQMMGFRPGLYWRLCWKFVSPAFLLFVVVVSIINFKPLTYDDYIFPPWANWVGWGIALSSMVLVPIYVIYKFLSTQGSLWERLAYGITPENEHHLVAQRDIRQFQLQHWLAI

| Structure (SMILES) | IC50 [µM] |
| --- | --- |
| OC[C@@H]1OC[C@@H](O[C@@H]2O[C@@H](CO)[C@@H](O)[C@@H](OCc3ccccc3)[C@@H]2O)[C@H](O)[C@H]1O [POLYGALATENOSIDE B] | 6.04 |
| OC[C@@H]1OC[C@@H](O[C@@H]2O[C@@H](COCc3ccccc3)[C@@H](O)[C@@H](O)[C@@H]2O)[C@H](O)[C@H]1O [POLYGALATENOSIDE A] | 30 |
